This is an account of results in publication PMC2806265, “Divergence of allosteric effects of rapacuronium on binding and function of muscarinic receptors” (BMC Pharmacology, 2009).

Where two headings read alike, the source gives them in different places. Marks after values point to notes of the source that are not given here.

In one test the target is T1, M2 muscarinic receptor (Homo sapiens, UniProt P08172).
T1 sequence (P08172 1-466): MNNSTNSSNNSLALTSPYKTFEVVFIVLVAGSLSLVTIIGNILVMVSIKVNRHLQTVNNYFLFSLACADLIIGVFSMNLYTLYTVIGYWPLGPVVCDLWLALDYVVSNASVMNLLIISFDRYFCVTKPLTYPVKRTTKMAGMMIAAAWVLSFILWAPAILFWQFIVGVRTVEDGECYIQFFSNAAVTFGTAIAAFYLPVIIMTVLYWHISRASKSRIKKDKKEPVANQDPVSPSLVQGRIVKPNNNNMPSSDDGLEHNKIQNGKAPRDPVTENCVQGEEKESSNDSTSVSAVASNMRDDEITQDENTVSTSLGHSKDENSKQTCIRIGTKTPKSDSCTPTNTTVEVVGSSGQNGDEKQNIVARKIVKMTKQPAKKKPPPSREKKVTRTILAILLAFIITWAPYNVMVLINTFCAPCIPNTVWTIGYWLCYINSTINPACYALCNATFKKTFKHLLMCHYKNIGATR
The test can be described thus: [35S]GTPγS binding to membranes. Format: biochemical. Set-up: host or cells: CHO cells, stably transfected; membrane preparation. Particulars: for EMAX of ACh on [^35S]GTPγS binding: fold of basal.

The target of test [1] is T2, M4 muscarinic receptor (Homo sapiens, UniProt P08173).
T2 sequence (P08173 1-479): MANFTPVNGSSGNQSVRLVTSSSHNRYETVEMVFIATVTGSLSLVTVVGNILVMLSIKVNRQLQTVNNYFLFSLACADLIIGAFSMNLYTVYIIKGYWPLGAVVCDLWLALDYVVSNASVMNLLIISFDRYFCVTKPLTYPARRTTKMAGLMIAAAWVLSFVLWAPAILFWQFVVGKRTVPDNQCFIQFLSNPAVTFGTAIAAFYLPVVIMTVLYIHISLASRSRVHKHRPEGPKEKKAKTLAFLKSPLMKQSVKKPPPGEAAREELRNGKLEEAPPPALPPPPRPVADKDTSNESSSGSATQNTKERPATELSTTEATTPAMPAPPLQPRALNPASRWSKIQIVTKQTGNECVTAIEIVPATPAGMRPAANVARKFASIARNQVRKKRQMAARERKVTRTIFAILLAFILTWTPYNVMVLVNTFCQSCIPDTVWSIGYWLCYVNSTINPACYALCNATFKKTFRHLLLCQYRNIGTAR
The test can be described thus: [3H]NMS dissociation. To be noted: + 100 μM rapacuronium.

In the next test the target is T3, M5 muscarinic receptor (Homo sapiens, UniProt P08912).
T3 sequence (P08912 1-532): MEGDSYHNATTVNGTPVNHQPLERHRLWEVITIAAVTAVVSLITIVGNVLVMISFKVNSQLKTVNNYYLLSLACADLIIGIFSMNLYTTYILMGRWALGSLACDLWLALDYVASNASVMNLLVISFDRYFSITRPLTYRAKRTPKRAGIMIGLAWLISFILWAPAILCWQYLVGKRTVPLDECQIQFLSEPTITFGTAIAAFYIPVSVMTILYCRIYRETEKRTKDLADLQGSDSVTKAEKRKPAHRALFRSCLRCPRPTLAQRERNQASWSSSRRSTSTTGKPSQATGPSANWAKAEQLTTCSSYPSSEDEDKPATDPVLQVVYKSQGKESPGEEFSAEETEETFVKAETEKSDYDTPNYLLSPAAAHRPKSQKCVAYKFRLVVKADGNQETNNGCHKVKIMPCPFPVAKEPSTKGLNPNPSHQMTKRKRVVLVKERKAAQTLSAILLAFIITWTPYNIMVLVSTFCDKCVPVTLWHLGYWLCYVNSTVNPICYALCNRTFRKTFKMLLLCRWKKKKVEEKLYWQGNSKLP
The test can be described thus: Effect of rapacuronium on high-affinity 20 nM [3H]ACh binding. Set-up: host or cells: CHO cells, stably transfected; membranes. The source says:
(§1) Cooperativity factor greater than 1 denotes negative cooperativity and less than 1 positive cooperativity. Due to its log-normal error distribution factors of cooperativity are expressed as negative logarithms (pα) through the manuscript so negative values denotes negative cooperativity and positive value denotes positive cooperativity.

Test [2] deals with T2, M4 muscarinic receptor. Described as above. Further details: host or cells: CHO cells, stably transfected; membranes.
Description: as §1

Test [3] has as its target T4, M3 muscarinic receptor (Homo sapiens, UniProt P20309).
T4 construct: host or cells: CHO cells, stably transfected; membranes
The test is described as above.
Description: as §1

Test [4] concerns the target T5, M1 muscarinic receptor (Homo sapiens, UniProt P11229).
T5 construct: host or cells: CHO cells, stably transfected; membrane preparation
T5 sequence (P11229 1-460): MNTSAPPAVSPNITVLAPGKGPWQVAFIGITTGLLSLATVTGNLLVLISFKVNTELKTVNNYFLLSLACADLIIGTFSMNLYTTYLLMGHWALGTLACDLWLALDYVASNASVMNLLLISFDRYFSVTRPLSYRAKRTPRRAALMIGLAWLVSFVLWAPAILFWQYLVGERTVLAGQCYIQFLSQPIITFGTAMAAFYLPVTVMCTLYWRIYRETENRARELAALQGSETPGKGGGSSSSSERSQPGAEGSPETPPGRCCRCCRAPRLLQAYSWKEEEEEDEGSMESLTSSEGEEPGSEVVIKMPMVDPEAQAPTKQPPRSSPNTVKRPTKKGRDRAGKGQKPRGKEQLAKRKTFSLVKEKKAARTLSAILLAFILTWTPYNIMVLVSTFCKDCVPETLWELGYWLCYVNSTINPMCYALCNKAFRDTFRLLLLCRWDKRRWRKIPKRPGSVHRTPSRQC
The test is described as above.
Description: as §1

Test [5] has as its target T4, M3 muscarinic receptor. Format: binding. The source says:
(§2) BMAX, maximum binding capacity; KD, equilibrium dissociation constant.

The target in test [6] is T5, M1 muscarinic receptor. It counts as binding.
Description: as §2

The mark [7] stands for this setting: read-out: pKA of rapacuronium (converted).

T4 sequence (P20309 whole entry): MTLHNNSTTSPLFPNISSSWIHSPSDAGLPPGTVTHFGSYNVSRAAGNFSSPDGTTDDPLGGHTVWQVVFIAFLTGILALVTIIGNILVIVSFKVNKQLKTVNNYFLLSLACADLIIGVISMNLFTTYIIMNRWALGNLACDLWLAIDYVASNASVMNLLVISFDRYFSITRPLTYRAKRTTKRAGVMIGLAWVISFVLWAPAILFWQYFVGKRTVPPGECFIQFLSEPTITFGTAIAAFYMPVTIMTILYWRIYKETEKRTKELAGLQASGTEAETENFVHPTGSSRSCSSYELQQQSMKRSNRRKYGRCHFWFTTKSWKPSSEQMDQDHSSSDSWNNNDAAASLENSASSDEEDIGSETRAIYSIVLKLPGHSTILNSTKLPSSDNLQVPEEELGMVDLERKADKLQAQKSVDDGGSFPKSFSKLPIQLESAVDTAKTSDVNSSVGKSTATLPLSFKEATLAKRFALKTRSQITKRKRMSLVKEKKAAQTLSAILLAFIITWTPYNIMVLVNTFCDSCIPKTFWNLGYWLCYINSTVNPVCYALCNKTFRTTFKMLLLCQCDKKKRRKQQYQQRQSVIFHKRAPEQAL
Description for M2 muscarinic receptor: For determination of [^35S]GTPγS binding to G-proteins in membranes a final concentration of 200 pM (M1, M3 and M5 receptors) or 500 pM (M2 and M4 receptors) of [^35S]GTPγS was used. Incubation medium was supplemented with 5 μM (M1, M3 and M5 receptors) or 50 μM (M2 and M4 receptors) GDP. […] Incubation with [^35S]GTPγS was carried out for 20 min and free ligand was removed by filtration as described above. Filtration and washing with ice-cold water lasted for 9 s (wash-aspirate button time).

`C=CC[N+]1([C@H]2C[C@H]3[C@@H]4CC[C@H]5C[C@H](OC(C)=O)[C@@H](N6CCCCC6)C[C@]5(C)[C@H]4CC[C@]3(C)[C@H]2OC(=O)CC)CCCCC1` [rapacuronium]: the “EMAX of ACh on [^35S]GTPγS binding” value at M2 muscarinic receptor (+ 0.1 μM rapacuronium) is on record as 3.10 ± 0.15; at M2 muscarinic receptor (+ 1 μM rapacuronium), 2.93 ± 0.13; at M2 muscarinic receptor (+ 10 μM rapacuronium) it was 2.46 ± 0.18. The “EMAX of rapacuronium on [^35S]GTPγS binding” value at M2 muscarinic receptor (rapacuronium alone, normalized to absence of rapacuronium) was 0.84 ± 0.06. Besides, the EC50 at M2 muscarinic receptor (rapacuronium alone, read-out: pEC50 of rapacuronium on [^35S]GTPγS binding (converted)) is 28.2 µM. Besides, the “f2, fraction of sites with faster dissociation” value on M4 muscarinic receptor [1] is given as 6.0 ± 2.0%. The “koff1 of [^3H]NMS dissociation” value on M4 muscarinic receptor [1] was 0.017 ± 0.001* min^-1. Also, the “koff2 of [^3H]NMS dissociation” value on M4 muscarinic receptor [1] stood at 0.75 ± 0.11 min⁻¹. Besides, the “pα, cooperativity with [^3H]ACh high affinity binding” value on M5 muscarinic receptor (M5, negative value = negative cooperativity) was -1.34 ± 0.07; on M4 muscarinic receptor [2] (M4, negative value = negative cooperativity), -1.51 ± 0.05; on M3 muscarinic receptor [3] (M3, negative value = negative cooperativity), -1.26 ± 0.05; at M1 muscarinic receptor [4] (M1, negative value = negative cooperativity) it was -1.30 ± 0.07. In addition, the Kd at M5 muscarinic receptor (setting [7]) was 12 µM; at M4 muscarinic receptor [2] (setting [7]) it was 3.89 µM; at M3 muscarinic receptor [3] (setting [7]), 15.8 µM; on M1 muscarinic receptor [4] (setting [7]), 4.27 µM. For the same molecule, the “BMAX of [^3H]NMS” value is listed as 1.67 ± 0.14 fmol/μg of protein at M3 muscarinic receptor [5] (+ 10 μM rapacuronium), 1.59 ± 0.16 fmol/μg of protein on M3 muscarinic receptor [5] (+ 100 μM rapacuronium), 2.03 ± 0.15 fmol/μg of protein on M1 muscarinic receptor [6] (+ 10 μM rapacuronium) and 1.85 ± 0.17 fmol/μg of protein at M1 muscarinic receptor [6] (+ 100 μM rapacuronium).
